{"source": "patent US8019412B2", "about": "“Apparatus for facilitating transdermal delivery of therapeutic substances and method of transdermally delivering therapeutic substances” (International Scientific Pty Ltd., priority 2003, dated 2011)", "tested_on": "excised human epidermal membranes", "format": "in vitro ADME", "from_the_text": "In an experimental example, penetration of caffeine through excised human epidermal membranes was investigated using Franz-type diffusion cells and standard procedures. An electromagnetic field pattern was created and the penetration results compared with passive diffusion. The electromagnetic field pattern used was generated by applying an energisation signal having 12 pulses at a repeating frequency of 10 Hz to a coil Each of the pulses has a duration of approximately 360 μs. A phosphate buffered saline receptor solution was used and the amount of caffeine in the receptor solution determined by HPLC with UV detection at regular time intervals up to 6 hours post application of the electromagnetic field. In this example, the electromagnetic field pattern was applied for approximately 30 minutes.\nSimilar experiments were carried out with electromagnetic fields generated by applying an energisation signal having 15 pulses of 360 μs duration at a repeating frequency of 20 Hz to a coil, and by applying an energisation signal having 255 pulses at a repeating frequency of 2 Hz to a coil. These experiments yielded caffeine flux values of 7.20 μgcm^−2h^−1 and 8.51 μgcm^−2h^−1, although the latter of these experiments produced an effect only after 60 minutes.\nA further experiment was carried out by applying an energisation signal having a single quasi-rectangular pulse repeated at 72 Hz to a coil."}
{"smiles": "Cn1c(=O)c2c(ncn2C)n(C)c1=O", "note": "[caffeine]", "values": [{"measurement": "caffeine flux associated with passive diffusion", "result": "~4.1", "unit": "μgcm^−2h^−1"}, {"measurement": "highest caffeine flux achieved with electromagnetic field pattern", "result": 19.24, "unit": "μgcm^−2h^−1"}, {"measurement": "time after which an effect was produced", "result": "≥ 60", "unit": "min"}]}
